US12304890B2, “R-type pyridyloxycarboxylic acid, salt and ester derivative thereof, and preparation method therefor, and herbicidal composition and application thereof” (Qingdao Kingagroot Chemical Compound Co., Ltd., priority 2018, dated 2025)

What was measured:
Type in all cases: in vivo
Echinochloa crusgalli = experiment: Post-emergence test experiment, Echinochloa crusgalli; conditions: 1000 g a.i./ha, 3 weeks in greenhouse, fresh weight inhibition
In short: (§1)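 Read-out is fresh weight inhibition rate, taken 3 weeks after spraying. Treatment was applied to plants at the 2-3 leaf stage, grown from seed under 0.5-2 cm soil in greenhouse pots. Spray solution contained acetone, tween-80 and methyl oleate emulsible concentrate at 1.5 liters per hectare.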

Digitaria sanguinalis = experiment: Post-emergence test experiment, Digitaria sanguinalis; conditions: 1000 g a.i./ha, 3 weeks in greenhouse, fresh weight inhibition
In short: as §1

[1] = tested on: Monocotyledonous and dicotyledonous weed seeds and main crop seeds; experiment: Post-emergence test experiment, other weeds and crops (Table 4, 1000 g a.i./ha); conditions: 3 weeks in greenhouse, fresh weight inhibition
In short: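 Weed and crop seeds (wheat, corn, rice, soybean, cotton, oilseed, millet, sorghum) sown in soil pots in a greenhouse and sprayed at 2-3 leaf stage, 2 weeks after sowing. Compound in acetone/tween-80 with methyl oleate concentrate (1.5 L/ha) as synergist. Effect recorded as fresh-weight growth inhibition rate.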

Row | SMILES | Activity level (growth inhibition rate), Echinochloa crusgalli (Echinochloa crusgalli) | Activity level (growth inhibition rate), Digitaria sanguinalis (Digitaria sanguinalis) | Activity level (growth inhibition rate), Abutilon theophrasti Medic. [1] | Activity level (growth inhibition rate), Galium aparine [1] | Activity level (growth inhibition rate), Monochoria Vaginalis [1]
1 | Cc1ccccc1OC(=O)[C@@H](C)Oc1nc(F)c(Cl)c(N)c1Cl [Compound 2-355] | 5 (Level 5: the growth inhibition rate is greater than 85%) | 5 (Level 5: the growth inhibition rate is greater than 85%) | 5 (Level 5: the growth inhibition rate is greater than 85%) | 5 (Level 5: the growth inhibition rate is greater than 85%) | 5 (Level 5: the growth inhibition rate is greater than 85%)
2 | CC(C)OC(=O)[C@@H](C)Oc1nc(F)c(Cl)c(N)c1Cl [Compound 2-75] | 5 (Level 5: the growth inhibition rate is greater than 85%) | 5 (Level 5: the growth inhibition rate is greater than 85%) | 5 (Level 5: the growth inhibition rate is greater than 85%) | 5 (Level 5: the growth inhibition rate is greater than 85%) | 5 (Level 5: the growth inhibition rate is greater than 85%)
3 | C[C@@H](Oc1nc(F)c(Cl)c(N)c1Cl)C(=O)OCC(F)(F)F [Compound 2-281] | 5 (Level 5: the growth inhibition rate is greater than 85%) | 5 (Level 5: the growth inhibition rate is greater than 85%) | 5 (Level 5: the growth inhibition rate is greater than 85%) | 5 (Level 5: the growth inhibition rate is greater than 85%) | 5 (Level 5: the growth inhibition rate is greater than 85%)
4 | COC(=O)[C@@H](C)Oc1nc(F)c(Cl)c(N)c1C [Compound 2-29] | 5 (Level 5: the growth inhibition rate is greater than 85%) | 5 (Level 5: the growth inhibition rate is greater than 85%) | 5 (Level 5: the growth inhibition rate is greater than 85%) | 5 (Level 5: the growth inhibition rate is greater than 85%) | 5 (Level 5: the growth inhibition rate is greater than 85%)
5 | CC(Oc1nc(F)c(Cl)c(N)c1Cl)C(=O)Oc1ccccc1 (stereo not drawn) [Compound 2-299] | 5 (Level 5: the growth inhibition rate is greater than 85%) | 5 (Level 5: the growth inhibition rate is greater than 85%) | 5 (Level 5: the growth inhibition rate is greater than 85%) | 5 (Level 5: the growth inhibition rate is greater than 85%) | 5 (Level 5: the growth inhibition rate is greater than 85%)
6 | CC(Oc1nc(F)c(Cl)c(N)c1Cl)C(=O)OC1CCCC1 (stereo not drawn) [Compound 2-265] | 5 (Level 5: the growth inhibition rate is greater than 85%) | 5 (Level 5: the growth inhibition rate is greater than 85%) | 5 (Level 5: the growth inhibition rate is greater than 85%) | 5 (Level 5: the growth inhibition rate is greater than 85%) | 5 (Level 5: the growth inhibition rate is greater than 85%)
7 | CCCCCCCCCCSC(=O)[C@@H](C)Oc1nc(F)c(Cl)c(N)c1Cl [Compound 2-196] | 5 (Level 5: the growth inhibition rate is greater than 85%) | 5 (Level 5: the growth inhibition rate is greater than 85%) | 5 (Level 5: the growth inhibition rate is greater than 85%) | 5 (Level 5: the growth inhibition rate is greater than 85%) | 5 (Level 5: the growth inhibition rate is greater than 85%)
8 | C[C@@H](Oc1nc(F)c(Cl)c(N)c1Cl)C(=O)OCC(C)(C)C [Compound 2-91] | 5 (Level 5: the growth inhibition rate is greater than 85%) | 5 (Level 5: the growth inhibition rate is greater than 85%) | 5 (Level 5: the growth inhibition rate is greater than 85%) | 5 (Level 5: the growth inhibition rate is greater than 85%) | 5 (Level 5: the growth inhibition rate is greater than 85%)
9 | CCC(C)SC(=O)[C@@H](C)Oc1nc(F)c(Cl)c(N)c1Cl (stereo partly drawn) [Compound 2-82] | 5 (Level 5: the growth inhibition rate is greater than 85%) | 5 (Level 5: the growth inhibition rate is greater than 85%) | 5 (Level 5: the growth inhibition rate is greater than 85%) | 5 (Level 5: the growth inhibition rate is greater than 85%) | 5 (Level 5: the growth inhibition rate is greater than 85%)
10 | CC(C)COC(=O)[C@@H](C)Oc1nc(F)c(Cl)c(N)c1Cl [Compound 2-79] | 5 (Level 5: the growth inhibition rate is greater than 85%) | 5 (Level 5: the growth inhibition rate is greater than 85%) | 5 (Level 5: the growth inhibition rate is greater than 85%) | 5 (Level 5: the growth inhibition rate is greater than 85%) | 5 (Level 5: the growth inhibition rate is greater than 85%)
11 | C[C@@H](Oc1nc(F)c(Cl)c(N)c1Cl)C(=O)SC(N)=O [Compound 2-373] | 5 (Level 5: the growth inhibition rate is greater than 85%) | 5 (Level 5: the growth inhibition rate is greater than 85%) | 5 (Level 5: the growth inhibition rate is greater than 85%) | 5 (Level 5: the growth inhibition rate is greater than 85%) | 5 (Level 5: the growth inhibition rate is greater than 85%)
12 | CC(Oc1nc(F)c(Cl)c(N)c1Cl)C(=O)OC1CC1 (stereo not drawn) [Compound 2-263] | 5 (Level 5: the growth inhibition rate is greater than 85%) | 5 (Level 5: the growth inhibition rate is greater than 85%) | 5 (Level 5: the growth inhibition rate is greater than 85%) | 5 (Level 5: the growth inhibition rate is greater than 85%) | 5 (Level 5: the growth inhibition rate is greater than 85%)
13 | CC(Oc1nc(F)c(Cl)c(N)c1Cl)C(=O)O.N (stereo not drawn) [Compound 2-3] | 5 (Level 5: the growth inhibition rate is greater than 85%) | 5 (Level 5: the growth inhibition rate is greater than 85%) | 5 (Level 5: the growth inhibition rate is greater than 85%) | 5 (Level 5: the growth inhibition rate is greater than 85%) | 5 (Level 5: the growth inhibition rate is greater than 85%)
14 | CC(Oc1nc(F)c(Cl)c(N)c1Cl)C(=O)OCc1ccc(Br)cc1 (stereo not drawn) [Compound 2-324] | 5 (Level 5: the growth inhibition rate is greater than 85%) | 5 (Level 5: the growth inhibition rate is greater than 85%) | 5 (Level 5: the growth inhibition rate is greater than 85%) | 5 (Level 5: the growth inhibition rate is greater than 85%) | 5 (Level 5: the growth inhibition rate is greater than 85%)
15 | CC(C)CCCSC(=O)[C@@H](C)Oc1nc(F)c(Cl)c(N)c1Cl [Compound 2-108] | 5 (Level 5: the growth inhibition rate is greater than 85%) | 5 (Level 5: the growth inhibition rate is greater than 85%) | 5 (Level 5: the growth inhibition rate is greater than 85%) | 5 (Level 5: the growth inhibition rate is greater than 85%) | 5 (Level 5: the growth inhibition rate is greater than 85%)
